The supplement of paper PMC5412046
Structures can show the parent of a compound that is named as a salt.

Tested on: SB.msgc-1
Experiment: AC50 for growth inhibition (viability) (log10 M); higher = less potent
Settings: SB.msgc-1 (sporadic gastric cancer)
Outline: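 A four-parameter fit of viability, normalised to DMSO, gave the log half-maximal activity concentration, and only high-quality curve classes were kept. Cells came from hereditary or sporadic gastric cancer patients, 500 per 1536 well, and were dosed for 48 h at 11 threefold dilutions from a final 46 μM. Readout was CellTiter-Glo luminescence on a ViewLux.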

Question: How did the “AC50 for growth inhibition (log10 M)” value turn out when `c1ccc(CNc2nc(N3CCOc4ccccc43)nc3c2CCCC3)cc1` was run?
Answer: -4.68

Question: With `C/C(=N\NC(=S)N1CCC1)c1ccccn1` as the compound, how does the “AC50 for growth inhibition (log10 M)” value read?
Answer: -5.73

Question: For `CC(C)c1ccc(Cn2ccc3c4c(N)nc(NC5CC5)nc4ccc32)cc1`, which “AC50 for growth inhibition (log10 M)” value is on record?
Answer: -5.78

Question: For `CC1(C)Cc2c(sc(NC(=S)NC(=O)c3ccccc3)c2C(=O)O)CO1`, which “AC50 for growth inhibition (log10 M)” value is on record?
Answer: -4.53

Question: `CCOC(=O)C(C)OC1=CC=CC2=C1\C=C/N(CC(=O)NC3=CC=C4OCCOC4=C3)C2=O` (centres undefined) was tested. Which “AC50 for growth inhibition (log10 M)” value did it give?
Answer: -5.18

Question: How did the “AC50 for growth inhibition (log10 M)” value turn out when `Cc1cc(NC(=O)Nc2ccc(N(C)C)cc2)c2cc(F)cc(F)c2n1` was run?
Answer: -5.08

Question: How did the “AC50 for growth inhibition (log10 M)” value turn out when `CN(C)Cc1ccc(-c2nc3cccc4c3n2CCNC4=O)cc1` was run?
Answer: -4.78

Question: For `Cc1c(-c2cccc3c(CCCOc4cccc5ccccc45)c(C(=O)O)n(Cc4cccnc4)c23)c(COc2ccc(N3CCN([S+](=O)([O-])N(C)C)CC3)cc2)nn1C`, which “AC50 for growth inhibition (log10 M)” value is on record?
Answer: -4.63

Question: For `COc1cc(N2CCN(C)CC2)ccc1Nc1nc(N)c(C(=O)c2c(Cl)cccc2Cl)s1`, which “AC50 for growth inhibition (log10 M)” value is on record?
Answer: -5.18

Question: With `COc1cc2c(Nc3ccc(NC(=O)c4ccccc4)cc3)ncnc2cc1OCCCN1CCOCC1` as the compound, how does the “AC50 for growth inhibition (log10 M)” value read?
Answer: -4.83

Question: With `COc1ccc(OC)c(-c2nnc3ccc(-c4ccc(OC)c(O[C@@H]5CCOC5)c4)nn23)c1` as the compound, how does the “AC50 for growth inhibition (log10 M)” value read?
Answer: -4.68

Question: How did the “AC50 for growth inhibition (log10 M)” value turn out when `COc1cc(-c2nn(C3CCC(N4CCN(C(C)=O)CC4)CC3)c3ncnc(N)c23)ccc1NC(=O)c1cc2ccccc2n1C` (centres undefined) was run?
Answer: -5.28

Question: `COc1ccc(CCC(=O)Nc2nc3ccc(Cl)cc3s2)cc1OC` was tested. Which “AC50 for growth inhibition (log10 M)” value did it give?
Answer: -4.63

Question: For `COc1ccc(N(C(=O)Oc2c(C)cccc2C)c2ccnc(Nc3ccc(N4CCN(C)CC4)cc3)n2)c(OC)c1`, which “AC50 for growth inhibition (log10 M)” value is on record?
Answer: -5.43

Question: `COC1=CC=C2[C@H]3CC[C@]4(C)[C@H](CC[C@H]4[C@@H]3CCC2=C1)NCCCCCCN5C(=O)\C=C/C5=O` was tested. Which “AC50 for growth inhibition (log10 M)” value did it give?
Answer: -4.73

Question: `C[N]1C=C(C=N1)C2=CC=C3N=CC\4=C(N(C(=O)\C=C4)C5=CC6=C(CCN6C(=O)C=C)C=C5)C3=C2` was tested. Which “AC50 for growth inhibition (log10 M)” value did it give?
Answer: -4.98

Question: For `C[S+]([O-])c1ccc(-c2nc(-c3ccc(F)cc3)c(-c3ccncc3)[nH]2)cc1` (centres undefined), which “AC50 for growth inhibition (log10 M)” value is on record?
Answer: -4.62

Question: `O=C1NC(=O)/C(=C/c2ccc3c(c2)OC(F)(F)O3)S1` was tested. Which “AC50 for growth inhibition (log10 M)” value did it give?
Answer: -4.83

Question: `Nc1cccc([S+](=O)([O-])N2CCCN([S+](=O)([O-])c3ccc4c(c3)OCCO4)CC2)c1` was tested. Which “AC50 for growth inhibition (log10 M)” value did it give?
Answer: -4.88

Question: With `Oc1ccc(C2CCN(c3ccnc4ccccc34)CC2)cc1O` as the compound, how does the “AC50 for growth inhibition (log10 M)” value read?
Answer: -4.63

Question: `O=C(NOC[C@H](O)CO)c1ccc(F)c(F)c1Nc1ccc(I)cc1F` was tested. Which “AC50 for growth inhibition (log10 M)” value did it give?
Answer: -6.33

Question: For `COc1cc2c(cc1O)CCC1C2CC[C@@]2(C)C1CC[C@@H]2O` (some centres undefined) [2-Methoxyestradiol], which “AC50 for growth inhibition (log10 M)” value is on record?
Answer: -5.33

Question: Which “AC50 for growth inhibition (log10 M)” value does the source give for `Cn1cnc(N)c2ncnc1-2` [3-Methyladenine] here?
Answer: -5.28

Question: `N[C@@H](Cc1c[nH]c2ccc(O)cc12)C(=O)O` [5-Hydroxytryptophan] was tested. Which “AC50 for growth inhibition (log10 M)” value did it give?
Answer: -4.68

Question: With `S=C1N\C=N/C2=C1[NH]C=N2` [6-mercaptopurine] as the compound, how does the “AC50 for growth inhibition (log10 M)” value read?
Answer: -5.63

Question: For `Cc1cc2c(C(C)C)c(O)c(O)c(C=O)c2c(O)c1-c1c(C)cc2c(C(C)C)c(O)c(O)c(C=O)c2c1O` [(-)-Gossypol], which “AC50 for growth inhibition (log10 M)” value is on record?
Answer: -4.83

Question: How did the “AC50 for growth inhibition (log10 M)” value turn out when `CC(C)[C@H]1C(=O)N[C@H](CO)Cc2c[nH]c3cccc(c23)N1C` [(-)-Indolactam V] was run?
Answer: -6.43

Question: How did the “AC50 for growth inhibition (log10 M)” value turn out when `Cc1cccc(-c2nn(C(=S)Nc3ccccc3)cc2-c2ccnc3ccccc23)n1` [A 83-01] was run?
Answer: -4.73

Question: `CC(=O)NC(C)c1ccc(Oc2ccc(OC(C)C)cc2)cc1` (centres undefined) [ACC1 BMS] was tested. Which “AC50 for growth inhibition (log10 M)” value did it give?
Answer: -4.73

Question: For `O=C(Nc1cccc(C(F)(F)F)c1)Nc1cc([S+](=O)([O-])NC2CC2)ccc1-c1ccsc1` [AGI-6780], which “AC50 for growth inhibition (log10 M)” value is on record?
Answer: -4.73

Question: `O=c1[nH]c2ccccc2n1C1CCN(Cc2ccc(-c3nc4cc5nc[nH]c5cc4nc3-c3ccccc3)cc2)CC1` [AKT inhibitor VIII] was tested. Which “AC50 for growth inhibition (log10 M)” value did it give?
Answer: -4.83

Question: Which “AC50 for growth inhibition (log10 M)” value does the source give for `COc1ccc(C(=O)c2c(C)n(CCN3CCOCC3)c3cc(I)ccc23)cc1` [AM-630] here?
Answer: -4.63

Question: How did the “AC50 for growth inhibition (log10 M)” value turn out when `Cc1csc(-c2nnc(Nc3ccc(Oc4ncccc4-c4ccnc(N)n4)cc3)c3ccccc23)c1` [AMG-900] was run?
Answer: -4.68

Question: How did the “AC50 for growth inhibition (log10 M)” value turn out when `N#Cc1ccc(Oc2ccc3c(c2)COB3O)cc1` [AN2728] was run?
Answer: -4.73

Question: How did the “AC50 for growth inhibition (log10 M)” value turn out when `COCC1(CO)C(=O)C2CCN1CC2` (centres undefined) [APR-246] was run?
Answer: -4.88

Question: With `CC(C)[C@H](C(=O)Nc1ccc(C(=O)NO)cc1)c1ccccc1` [AR-42] as the compound, how does the “AC50 for growth inhibition (log10 M)” value read?
Answer: -6.18

Question: For `Cn1cnc2c(F)c(Nc3ccc(Br)cc3F)c(C(=O)NOCCO)cc21` [ARRY-162], which “AC50 for growth inhibition (log10 M)” value is on record?
Answer: -6.63

Question: How did the “AC50 for growth inhibition (log10 M)” value turn out when `COc1cc(N2CCC(N3CCN(C)CC3)CC2)ccc1Nc1ncnc(Nc2ccccc2[S+](=O)([O-])C(C)C)n1` [ASP-3026] was run?
Answer: -4.88

Question: With `CN1\C=N/C2=CC=C(NC3=CC(=CC=C3C)NC(=O)C4=CC(=CC=C4)C(C)(C)C#N)C=C2C1=O` [AZ-628] as the compound, how does the “AC50 for growth inhibition (log10 M)” value read?
Answer: -5.23

Question: `COc1cc(OC2CCN(C)CC2)ccc1Nc1ncc2c(n1)n(C1CCCC1)c(=O)n2C` [AZ-3146] was tested. Which “AC50 for growth inhibition (log10 M)” value did it give?
Answer: -4.78

Question: Which “AC50 for growth inhibition (log10 M)” value does the source give for `Cc1ncc(-c2ccnc(Nc3ccc([S+](C)(=O)[O-])cc3)n2)n1C(C)C` [AZD-5438] here?
Answer: -5.78

Question: For `NC(=O)Nc1cc(-c2cccc(F)c2)sc1C(=O)N[C@H]1CCCNC1` [AZD-7762], which “AC50 for growth inhibition (log10 M)” value is on record?
Answer: -6.73

Question: Which “AC50 for growth inhibition (log10 M)” value does the source give for `C[C@]\12CC[C@H](O)CC1=C/C[C@@H]3[C@@H]2CC[C@@]\4(C)[C@H]3C\C=C4C5=CN=CC=C5` [Abiraterone] here?
Answer: -5.19

Question: With `COc1cc(C)c(/C=C/C(C)=C/C=C/C(C)=C/C(=O)O)c(C)c1C` [Acitretin] as the compound, how does the “AC50 for growth inhibition (log10 M)” value read?
Answer: -4.73

Question: `O=C(Nc1cccc(Br)c1)c1cccc([S+](=O)([O-])N2CCCCCC2)c1` [Ak-7] was tested. Which “AC50 for growth inhibition (log10 M)” value did it give?
Answer: -4.73

Question: Which “AC50 for growth inhibition (log10 M)” value does the source give for `CCC[S+]([O-])c1ccc2[nH]c(NC(=O)OC)nc2c1` (centres undefined) [Albendazole Oxide] here?
Answer: -4.68

Question: `NC12CC3CC(CC(C3)C1)C2` [Amantadine hydrochloride] was tested. Which “AC50 for growth inhibition (log10 M)” value did it give?
Answer: -4.68

Question: For `Nc1nc(N)c2nc(CNc3ccc(C(=O)NC(CCC(=O)O)C(=O)O)cc3)cnc2n1` (centres undefined) [Aminopterin], which “AC50 for growth inhibition (log10 M)” value is on record?
Answer: -7.63

Question: For `COc1ccc(C(=O)N2CCCC2=O)cc1` [Aniracetam], which “AC50 for growth inhibition (log10 M)” value is on record?
Answer: -4.68

Question: How did the “AC50 for growth inhibition (log10 M)” value turn out when `CCOC(=O)c1c(CSc2ccccc2)n(C)c2cc(Br)c(O)c(CN(C)C)c12` [Arbidol] was run?
Answer: -4.63

Question: Which “AC50 for growth inhibition (log10 M)” value does the source give for `COC(=O)\C1=C\CCN(C)C1` [Arecoline] here?
Answer: -4.68

Question: With `O=C1CCc2ccc(OCCCCN3CCN(c4cccc(Cl)c4Cl)CC3)cc2N1` [Aripiprazole] as the compound, how does the “AC50 for growth inhibition (log10 M)” value read?
Answer: -4.73

Question: Which “AC50 for growth inhibition (log10 M)” value does the source give for `CO[C@H]1O[C@@H]2O[C@@]3(C)CC[C@H]4[C@H](C)CC[C@@H]([C@H]1C)[C@@]24OO3` [Artemether] here?
Answer: -5.98

Question: For `C[C@@H]1CC[C@H]2[C@@H](C)C(=O)O[C@@H]3O[C@@]4(C)CC[C@@H]1[C@]32OO4` [Artemisinin], which “AC50 for growth inhibition (log10 M)” value is on record?
Answer: -6.93
